The nature of one data set: Room temperature evaporation rate: rate of weight loss in a stream of 25° C. nitrogen relative to n-butyl acetate.
Conditions: not given
Format: physicochemical. Here is the method: Most compounds released by manufacturing processes affect the environment in some manner. […] The room temperature evaporation rates of some of the ILs described in the present invention were compared to several well known compounds by measuring the rate of weight loss in a stream of 25° C. nitrogen relative to the rate of weight loss of n-butyl acetate under the same conditions.
Regarding `CCCCCC` [hexane], the “Evaporation Rate (n-Butyl Acetate = 1)” value is 8.9. For `OCCO` [ethylene glycol], the “Evaporation Rate (n-Butyl Acetate = 1)” value is <0.01. The same measure, in the same setting: the figure for `CCCCC(CC)C(=O)[O-].CCCCC(CC)C(=O)[O-].[Zn+2]` (stereo not shown) [Zn(2eh)2, zinc (II) 2-ethylhexanoate] is <0.001.

Staying with this data set, now noted: rate of weight loss in a stream of 25° C. nitrogen, relative to n-butyl acetate under the same conditions.
On to `CCC(C)=O` [methyl ethyl ketone], for which the “Evaporation Rate (n-Butyl Acetate = 1)” value came to 5.7. On the same count and under the same terms, the figure for `CCCCO` [n-Butanol] is 0.43; for `Cc1ccccc1` [toluene] it is 1.9. The same measure, in the same setting: as for `CC(C)O` [IPA], the figure is 2.5; as for `CCCCC(CC)C(=O)O` (stereo not shown) [H2eh, 2-ethylhexanoic acid], 0.003. Same read-out and setting: the figure for `CC(C)=O` [acetone] is 14.4; for xylene it is 0.8.

The values are drawn from US20070129568A1, “Ionic liquids” (nGimat, Co., priority 2005, published 2007).
